The target of the test is TAAR1 (Mus musculus (Mouse), UniProt Q923Y8). The test can be described thus: Radioligand binding assay on TAAR1 (membranes of stably transfected HEK293 cells). As to conditions: competition with [3H]-rac-2-(1,2,3,4-tetrahydro-1-naphthyl)-2-imidazoline, 4° C., 30 min. As to the method: For the construction of expression plasmids the coding sequences of human, rat and mouse TAAR 1 were amplified from genomic DNA essentially as described by Lindemann et al.. The Expand High Fidelity PCR System (Roche Diagnostics) was used with 1.5 mM Mg^2+ and purified PCR products were cloned into pCR2.1—TOPO cloning vector (Invitrogen) following the instructions of the manufacturer. PCR products were subcloned into the pIRESneo2 vector (BD Clontech, Palo Alto, Calif.), and expression vectors were sequence verified before introduction in cell lines.
Sequence of TAAR1 (Q923Y8 whole entry): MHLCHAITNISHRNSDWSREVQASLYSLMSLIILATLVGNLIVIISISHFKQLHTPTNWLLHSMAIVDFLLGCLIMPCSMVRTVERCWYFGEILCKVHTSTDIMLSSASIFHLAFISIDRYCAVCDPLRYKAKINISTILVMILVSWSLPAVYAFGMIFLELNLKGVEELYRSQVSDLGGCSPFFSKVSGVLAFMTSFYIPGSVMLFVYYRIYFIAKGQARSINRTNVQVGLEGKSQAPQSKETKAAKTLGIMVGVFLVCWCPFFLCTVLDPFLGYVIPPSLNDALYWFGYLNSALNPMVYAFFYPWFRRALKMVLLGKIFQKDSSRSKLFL
HEK293 cells (ATCC # CRL-1573) were cultured essentially as described Lindemann et al. (2005). For the generation of stably transfected cell lines HEK293 cells were transfected with the pIRESneo2 expression plasmids containing the TAAR coding sequences (described above) with Lipofectamine 2000 (Invitrogen) according to the instructions of the manufacturer, and 24 hrs post transfection the culture medium was supplemented with 1 mg/ml G418 (Sigma, Buchs, Switzerland). After a culture period of about 10 d clones were isolated, expanded and tested for responsiveness to trace amines (all compounds purchased from Sigma) with the cAMP Biotrak Enzyme immunoassay (EIA) System (Amersham) following the non-acetylation EIA procedure provided by the manufacturer. […] Membrane Preparation and Radioligand Binding
Cells at confluence were rinsed with ice-cold phosphate buffered saline without Ca^2+ and Mg^2+ containing 10 mM EDTA and pelleted by centrifugation at 1000 rpm for 5 min at 4° C. The pellet was then washed twice with ice-cold phosphate buffered saline and cell pellet was frozen immediately by immersion in liquid nitrogen and stored until use at −80° C. Cell pellet was then suspended in 20 ml HEPES-NaOH (20 mM), pH 7.4 containing 10 mM EDTA, and homogenized with a Polytron (PT 3000, Kinematica) at 10,000 rpm for 10 s. The homogenate was centrifuged at 48,000×g for 30 min at 4° C. and the pellet resuspended in 20 ml HEPES-NaOH (20 mM), pH 7.4 containing 0.1 mM EDTA (buffer A), and homogenized with a Polytron at 10,000 rpm for 10 s. The homogenate was then centrifuged at 48,000×g for 30 min at 4° C. and the pellet resuspended in 20 ml buffer A, and homogenized with a Polytron at 10,000 rpm for 10 s. Protein concentration was determined by the method of Pierce (Rockford, Ill.). The homogenate was then centrifuged at 48,000×g for 10 min at 4° C., resuspended in HEPES-NaOH (20 mM), pH 7.0 including MgCl2 (10 mM) and […] homogenized with a Polytron at 10,000 rpm for 10 s.
Binding assay was performed at 4° C. in a final volume of 1 ml, and with an incubation time of 30 min. The radioligand [^3H]-rac-2-(1,2,3,4-tetrahydro-1-naphthyl)-2-imidazoline was used at a concentration equal to the calculated Kd value of 60 nM to give a bound at around 0.1% of the total added radioligand concentration, and a specific binding which represented approximately 70-80% of the total binding. Non-specific binding was defined as the amount of [^3H]-rac-2-(1,2,3,4-tetrahydro-1-naphthyl)-2-imidazoline bound in the presence of the appropriate unlabelled ligand (10 μM). Competing ligands were tested in a wide range of concentrations […]. […] Each experiment was performed in duplicate. All incubations were terminated by rapid filtration through UniFilter-96 plates (Packard Instrument Company) and glass filter GF/C, pre-soaked for at least 2 h in polyethylenimine 0.3%, and using a Filtermate 96 Cell Harvester (Packard Instrument Company). The tubes and filters were then washed 3 times with 1 ml aliquots of cold buffer B. Filters were not dried and soaked in Ultima gold (45 μl/well, Packard Instrument Company) and bound radioactivity was counted by a TopCount Microplate Scintillation Counter (Packard Instrument Company).
One may read the Ki as a measure of affinity in units of concentration, obtained from inhibition or displacement. With `CC[C@@H](C[C@H]1COC(N)=N1)Oc1ccc2ncccc2c1` [Example 159, (S)-4-[(S)-2-(Quinolin-6-yloxy)-butyl]-4,5-dihydro-oxazol-2-ylamine], the Ki worked out at 0.0063 µM.

`NC1=N[C@@H](CCOc2ccc(Oc3ccccc3)cc2)CO1` [Example 36, (S)-4-[2-(4-Phenoxy-phenoxy)-ethyl]-4,5-dihydro-oxazol-2-ylamine] had a Ki of 0.0039 µM. In turn, `CC[C@@H](C[C@H]1COC(N)=N1)Oc1ccc(F)cc1F` [Example 114, (S)-4-[(S)-2-(2,4-Difluoro-phenoxy)-butyl]-4,5-dihydro-oxazol-2-ylamine] had a Ki of 0.0019 µM. Regarding `COc1ccc(OCC[C@H]2COC(N)=N2)cc1` [Example 59, (S)-4-[2-(4-Methoxy-phenoxy)-ethyl]-4,5-dihydro-oxazol-2-ylamine], the Ki is 0.0076 µM. `NC1=N[C@@H](CCOc2cccc(C(F)(F)F)c2)CO1` [Example 4, (S)-4-[2-(3-Trifluoromethyl-phenoxy)-ethyl]-4,5-dihydro-oxazol-2-ylamine] returned a Ki of 0.0009 µM. This Ki lies about 8.4-fold lower than the previous one. For the compound `CC[C@@H](C[C@H]1COC(N)=N1)Oc1ccc(Cl)cc1` [Example 107, (S)-4-[(S)-2-(4-Chloro-phenoxy)-butyl]-4,5-dihydro-oxazol-2-ylamine], the Ki was 0.001 µM. As for `CCC(CC[C@H]1COC(N)=N1)c1cccc(C(F)(F)F)c1` (stereo partly drawn) [Example 28, (4S)-4-[3-(3-Trifluoromethyl-phenyl)-pentyl]-4,5-dihydro-oxazol-2-ylamine], the affinity corresponds to a Ki of 0.0013 µM. Compound `NC1=N[C@@H](CCC2(c3cc(F)cc(Cl)c3)CC2)CO1` [Example 143, (S)-4-{2-[1-(3-Chloro-5-fluoro-phenyl)-cyclopropyl]-ethyl}-4,5-dihydro-oxazol-2-ylamine] came in with a Ki of 0.0009 µM. As for `NC1=N[C@@H](CCOc2ccc(Cl)c(Cl)c2)CO1` [Example 57, (S)-4-[2-(3,4-Dichloro-phenoxy)-ethyl]-4,5-dihydro-oxazol-2-ylamine], the affinity corresponds to a Ki of 0.0003 µM. The compound `C[C@@H](C[C@H]1COC(N)=N1)Oc1ccc(Cl)c(F)c1` [Example 70, (S)-4-[(S)-2-(4-Chloro-3-fluoro-phenoxy)-propyl]-4,5-dihydro-oxazol-2-ylamine] registered a Ki of 0.0036 µM.

In turn, `N#Cc1cccc(OCC[C@H]2COC(N)=N2)c1` [Example 63, 3-[2-((S)-2-Amino-4,5-dihydro-oxazol-4-yl)-ethoxy]-benzonitrile] yielded a Ki of 0.001 µM. The compound `C[C@@H](C[C@H]1COC(N)=N1)Oc1ccc(F)c(Cl)c1` [Example 72, (S)-4-[(S)-2-(3-Chloro-4-fluoro-phenoxy)-propyl]-4,5-dihydro-oxazol-2-ylamine] returned a Ki of 0.0024 µM.

For the compound `NC1=N[C@@H](CCOc2ccc(Cc3ccccc3)cc2)CO1` [Example 47, (S)-4-[2-(4-Benzyl-phenoxy)-ethyl]-4,5-dihydro-oxazol-2-ylamine], the affinity, expressed as Ki, was 0.0048 µM. For the compound `NC1=N[C@@H](CCC2(c3ccc(Cl)cc3)CC2)CO1` [Example 30, (S)-4-{2-[1-(4-Chloro-phenyl)-cyclopropyl]-ethyl}-4,5-dihydro-oxazol-2-ylamine], the affinity corresponds to a Ki of 0.0004 µM. `NC1=N[C@@H](CCC2(c3cc(F)cc(F)c3)CC2)CO1` [Example 142, (S)-4-{2-[1-(3,5-Difluoro-phenyl)-cyclopropyl]-ethyl}-4,5-dihydro-oxazol-2-ylamine] displayed a Ki of 0.0013 µM. `NC1=N[C@@H](CCC2(c3ccc(Br)cc3)CC2)CO1` [Example 144, (S)-4-{2-[1-(4-Bromo-phenyl)-cyclopropyl]-ethyl}-4,5-dihydro-oxazol-2-ylamine] came in with an inhibition constant (Ki) of 0.0005 µM. Against the preceding compound, the Ki is about 2.6-fold lower.

On to `C[C@@H](C[C@H]1COC(N)=N1)Oc1ccc(Cl)cc1` [Example 45, (S)-4-[(S)-2-(4-Chloro-phenoxy)-propyl]-4,5-dihydro-oxazol-2-ylamine], for which the Ki is 0.0028 µM. `CC(C)(CC[C@H]1COC(N)=N1)c1ccc(Cl)cc1` [Example 26, (S)-4-[3-(4-Chloro-phenyl)-3-methyl-butyl]-4,5-dihydro-oxazol-2-ylamine] had a Ki of 0.0007 µM. The compound `C[C@@H](C[C@H]1COC(N)=N1)Oc1cccc(Cl)c1` [Example 68, (S)-4-[(S)-2-(3-Chloro-phenoxy)-propyl]-4,5-dihydro-oxazol-2-ylamine] gave a Ki of 0.0012 µM. The same measure for `CC[C@@H](C[C@H]1COC(N)=N1)Oc1ccc(C(F)(F)F)cc1` [Example 121, (S)-4-[(S)-2-(4-Trifluoromethyl-phenoxy)-butyl]-4,5-dihydro-oxazol-2-ylamine]: 0.0038 µM.

On to `CC[C@@H](C[C@H]1COC(N)=N1)Oc1ccc(Cl)cc1F` [Example 123, (S)-4-[(S)-2-(4-Chloro-2-fluoro-phenoxy)-butyl]-4,5-dihydro-oxazol-2-ylamine], for which the affinity corresponds to a Ki of 0.0065 µM. Regarding `C[C@H](C[C@H]1COC(N)=N1)Oc1cccc(Cl)c1` [Example 84, (S)-4-[(R)-2-(3-Chloro-phenoxy)-propyl]-4,5-dihydro-oxazol-2-ylamine], the Ki turned out to be 0.0076 µM. The compound `C[C@@H](C[C@H]1COC(N)=N1)Oc1ccc(F)cc1` [Example 64] gave a Ki of 0.0076 µM. Regarding `CC[C@@H](C[C@H]1COC(N)=N1)Oc1ccc(Cl)cc1Cl` [Example 158, (S)-4-[(S)-2-(2,4-Dichloro-phenoxy)-butyl]-4,5-dihydro-oxazol-2-ylamine], the affinity, expressed as Ki, was 0.0011 µM. `NC1=N[C@@H](CCOc2cc(F)cc(F)c2)CO1` [Example 130, (S)-4-[2-(3,5-Difluoro-phenoxy)-ethyl]-4,5-dihydro-oxazol-2-ylamine] yielded a Ki of 0.0007 µM.

Compound `NC1=N[C@@H](CCOc2ccc(F)cc2)CO1` [Example 2, (S)-4-[2-(4-Fluoro-phenoxy)-ethyl]-4,5-dihydro-oxazol-2-ylamine] showed a Ki of 0.0028 µM. For `NC1=N[C@@H](CCOc2ccc(F)c(Cl)c2)CO1` [Example 8, (S)-4-[2-(3-Chloro-4-fluoro-phenoxy)-ethyl]-4,5-dihydro-oxazol-2-ylamine], the Ki stood at 0.0002 µM. Compared with the last compound, the Ki is about 14-fold lower. `NC1=N[C@@H](CCC2(c3ccc(Cl)cc3)CCC2)CO1` [Example 110, (S)-4-{2-[1-(4-Chloro-phenyl)-cyclobutyl]-ethyl}-4,5-dihydro-oxazol-2-ylamine]: the Ki was determined as 0.0059 µM.

Compound `NC1=N[C@@H](CCC(F)(F)c2ccc(F)cc2)CO1` [Example 162, (S)-4-[3,3-Difluoro-3-(4-fluoro-phenyl)-propyl]-4,5-dihydro-oxazol-2-ylamine] yielded a Ki of 0.0022 µM. On to `C[C@@H](CC[C@H]1COC(N)=N1)c1ccc(F)cc1` [Example 115, (S)-4-[(S)-3-(4-Fluoro-phenyl)-butyl]-4,5-dihydro-oxazol-2-ylamine], for which the Ki was 0.0031 µM.

`CC(CC[C@H]1COC(N)=N1)c1ccc(F)cc1` (stereo partly drawn) [Example 17, (4S)-4-[3-(4-Fluoro-phenyl)-butyl]-4,5-dihydro-oxazol-2-ylamine] registered a Ki of 0.0012 µM. For the compound `NC1=N[C@@H](CCOc2ccc(Cl)c(F)c2)CO1` [Example 54, (S)-4-[2-(4-Chloro-3-fluoro-phenoxy)-ethyl]-4,5-dihydro-oxazol-2-ylamine], the Ki came out at 0.0014 µM. For `COC(=O)c1cccc(OCC[C@H]2COC(N)=N2)c1` [Example 127, 3-[2-((S)-2-Amino-4,5-dihydro-oxazol-4-yl)-ethoxy]-benzoic acid methyl ester], the Ki turned out to be 0.008 µM. In turn, `CC[C@@H](C[C@H]1COC(N)=N1)Oc1cc(F)c(F)cc1F` [Example 152, (S)-4-[(S)-2-(2,4,5-Trifluoro-phenoxy)-butyl]-4,5-dihydro-oxazol-2-ylamine] came in with a Ki of 0.0029 µM.

The record behind these values is patent US8729113B2 (Hoffmann-La Roche Inc., priority 2008, dated 2014).
